From US7465716B2, “Targeted drug delivery with a hyaluronan ligand” (The Regents of the University of California, priority 1999, dated 2008) come the findings set out here.

One data set deals with B16F10 lung tumors. The data set can be described thus: Chemotherapy of mice with B16F10 lung tumors (Table 4). It is filed as in vivo, C57/BL6 mice. Particulars: treated day 6, counted day 14, N = 9; HAL-dox and POPG-dox at 8 mg/kg. The method, then: The drug delivery systems of this invention can be tested in the B16F10 lung metastases model. The number of B16F10 tumor nodules was enumerated in the lung of syngeneic C57/BL6 mice 14days after intravenouss injection into the tail vein of 1×10^5, 3×10^5 and 1×10^6 B16F10 cells/mouse in a volume of 0.2 mL PBS. These cell numbers were used because they span the range reported to give a countable number of nodules in previous investigations. The animals were sacrificed and the lungs were removed 14 days post inoculation of B16F10 cells, and then fixed in Bouin's solution. The visible tumor nodules were assessed and counted under dissecting microscope. N=9 per group. The dose of 3×10^5 cells/mouse yielded a suitable number of nodules to provide an adequate statistical analysis. […] The distribution of hyaluronanliposomes in B16F10 tumorial mice was measured on day 14 after innoculation. […] The animals (n=7) were sacrificed 3 hours after injection, the organs removed, the lungs were fixed in Bouin's solution and the radioactivity in each organ determined by gamma scintillation spectroscopy (Table 3).
The chemotherapeutic efficacy of doxorubicin delivered in various forms in the B16F10 lung tumor model was compared by counting the nodules on day 14 after innoculation of mice with B16F10. […] The animals were sacrificed and tumor nodules: counted on day 14. […]

The test system of data set [1] is B16-F10 tumor nodules in the lung. The data set can be described thus: Effect of liposome composition on B16-F10 lung tumor nodules (Table 5). In kind it is in vivo, C57/BI6 mice. The following applies: Doxorubicin 3 mg/kg on day 6, 10 mice/group. The method, then:
As shown above, the presence of the targeting hyaluronan lipid, the type of lipid anchor that the hyaluronan was attached to and the lipid composition of the targeted liposomes influenced the anti-tumor effect. In this example, doxorubicin was encapsulated in liposomes of different compositions (described below in the liposome preparation) and injected into C57/BI6 mice at a dose of 3 mg/kg on day 6 after the mice had received the B16-F10 tumor as described above.
A specific, non-limiting example of doxorubicin loaded lipsome preparation involves thin lipid film hydration followed by sonication and extrusion. Briefly, the lipid components were weighed and dissolved in chloroform at the desired molar ratio(POPC:Chol:HA4-POPE:aT 60:40:3:0.1; POPC:Chol:POPG:aT 60:40:9:0.1; HSPC:Chol:PEG-DSPE:aT 56.2:38.3:5.3:0.1; HSPC:Chol:DPPG:aT 56.2:38.3:5.3:0.1; HSPC:Chol:HA4-DPPE:aT 56.2:38.3:5.3:0.1). […] Phospholipid concentration was determined by a phosphorous assay. DOX concentrations were determined by measurement of absorbance at 480 nm (using a molar coefficient=12,500) after solubilization of the liposomes in 90% isopropyl alcohol containing 0.075 M HCl. […] For both POPC and HSPC liposomes, mean vesicle diameter as measured by dynamic light scattering using the multimodal program was 120-150 nm (SD<35% of the mean) with a monodisperse particle size distribution. […]

Data set [2] shares this test system. The data set can be described thus: Dose response on B16-F10 lung tumor nodules (Table 6). In kind it is in vivo, C57/BI6 mice. The procedure:
In this experiment groups of 10 animals were inoculated with the tumor cells on day zero and treated with the various formulations on day 6 as described above. To keep the lipid concentration constant as the dose of liposome encapsulated drug was reduced, HAL-Dox formulations were diluted with empty DSPG liposome (HSPC:Chol:DSPG 60:40:9 mole ration) to maintain the total lipid concentration at 1 micromole.

Another data set deals with CV-1 cells. The data set can be described thus: Chemosensitivity assay (SRB staining), CV-1 cells. Particulars: compared with B16F10 cells / free DOX. In kind it is cell-based, monkey. The source says: FIGS. 5A and 5B show the DOX dose dependence cytotoxicity determined after treatment of B16F10 and CV-1 cells with non-encapsulated DOX and DOX-loaded HAL. […] To examine the specificity of the HAL we treated CV-1 cells with the three formulations. CV-1 cells express a very low level of CD44. […] Furthermore, the cytotoxicity of both the HAL and POPG liposomes was. similar, confirming the low interaction of the liposomes with CV-1 cells.
The cytotoxic effect of free DOX or Liposomes-encapsulated DOX on the cells was assayed colorimetrically by the sulforhodamine B (SRB) staining. A sample containing 16,000 B16F10 or 25,000 CV-1 cells (from an exponentially growing culture) in 100 μl aliquots were plated onto 96-well flat bottom microtiter plates. The culture plates were incubated for 24 hours at 37° C. and 5% CO2 and then the medium in each well was replaced with 100 μl serum-free and antibiotic-free medium containing various concentration of free or liposome-encapsulated DOX. For each 10-fold increase in drug concentration, four drug concentration levels were tested. […] The cultures were incubated at 4° C. for 1 h and then washed and analyzed for SRB staining of the monolayers as described. The measurement of the absorbance of the SRB at 564 nm in the monolayers was determined by an Optimax microplate reader (Molecular Devices, Sunnyvale, Calif.). […]
A general note: Sulforhodamine B stains cellular protein and so reports cell mass.

[3] abbreviates: 0.3 mg/kg, HAL-Dox = HAL-DPPE encapsulated Dox.
Setting [4] is: 1 mg/kg, HAL-Dox = HAL-DPPE encapsulated Dox.
[5] abbreviates: 3 mg/kg, HAL-Dox = HAL-DPPE encapsulated Dox.
The mark [6] stands for this setting: 10 mg/kg, treated day 6, groups of 10.

Turning to `COc1cccc2c1C(=O)c1c(O)c3c(c(O)c1C2=O)C[C@@](O)(C(=O)CO)C[C@@H]3O[C@H]1C[C@H](N)[C@H](O)[C@H](C)O1` [free DOX, Doxorubicin], the “# nodules Mean” value with B16F10 lung tumors amounted to 56.11 ± 49.48; in data set [1] it was 171.60 ± 71.79; in data set [2] (setting [3]), 248.1 ± 56.9; in data set [2] (setting [4]), 265.9 ± 34.5; in data set [2] (setting [5]), 208.2 ± 82.1; in data set [2] (setting [6]) it was 157.9 ± 70.6. The “# nodules Median” value came out at 45 in the data set with B16F10 lung tumors; 179 in data set [1]; 250.5 in data set [2] (setting [3]); 277 in data set [2] (setting [4]); 191 in data set [2] (setting [5]); 151 in data set [2] (setting [6]). For the same compound, the “cytotoxicity to CV-1 cells (in words)” value in the data set with CV-1 cells is “significantly lower”.
